Data: patent publication US4395553A, “Chemical compounds” (Bristol-Myers Company, priority 1982, dated 1983)

Assays:
H2-receptor = settings: cited from earlier work; for potency / effectiveness as H2-antagonist versus other H2-antagonist: compared with burimamide or metiamide
[1] = cited from earlier work
gastric acid secretion [2] = assay: Gastric Antisecretory Activity in the Gastric Fistula Rat; assay type: in vivo, rat (male Long Evans); settings: sc; for ED50: read-out: ED50 sc
Protocol: Male Long Evans rats weighing about 240-260 grams at the time of cannula implantation are used. […] The fistula components are designed and the operative procedure is carried out exactly as described in the above reference. Post operatively the animals are individually housed in solid bottom cages with sawdust and are allowed food and water ad libitum throughout the entire recovery period. Animals are not used for test purposes for at least 15 days after the operative procedure. The animals are fasted but allowed water ad libitum for 20 hours before the testing procedure is to begin. […] The catheter is then screwed into the cannula in place of the plugging screw and the rat is placed in a clear plastic rectangular cage measuring 40 cm long, 15 cm wide and 13 cm high. The bottom of the cage has a slit approximately 1.5 cm wide and 25 cm long running down the center to accommodate the catheter which hangs through it. In this way the rat is not restricted and can move freely about the cage during collection periods. The remainder of the assay is carried out as described by Ridley et al. [Research Comm. Chem. Path. […] Gastric secretions collected during the first hour after washing the stomach are discarded as they may be contaminated. For oral evaluation, the catheter is then removed from the cannula and replaced with the plugging screw. […] After this time the plugging screw is removed and replaced with a catheter to which a small plastic vial has been attached to collect the gastric secretions. A two hour sample is collected (this represents the control secretion), the catheter removed and replaced with the plugging screw. […] Forty-five minutes later the plugging screw is again removed, replaced with the catheter attached to a small plastic vial and another 2 hour sample is collected. The secretions in the second sample are compared to those of the control sample in order to determine the effects of the test drug. […] Titratable acid output is calculated in microequivalents by multiplying the volume in milliliters by the acid concentration in milliequivalents per liter. Results are expressed as percent inhibition relative to control readings. Dose response curves are constructed and ED50 values are calculated by regression analyses. At least three rats are used at each dosage level and a minimum of three dosage levels are utilized for determination of a dose response curve.

gastric acid secretion [3] = assay: Gastric Antisecretory Activity in the Heidenhain Pouch Dog; assay type: in vivo
Protocol: Prior to surgery, hematology and blood chemistry profiles are obtained and an assessment made as to the general health of selected female dogs. Dogs are vaccinated with Tissue Vax 5 (DHLP--Pitman-Moore) and housed in general animal quarters for four weeks' observation so incipient diseases may become apparent. Dogs are fasted with water ad libitum 24 hours prior to surgery.
Anesthesia is induced with Sodium Pentothal (Abbott) 25-30 mg/kg iv. Subsequent anesthesia is maintained with methoxyflurane (Pitman-Moore). A mid-line linea alba incision from xiphoid to umbilicus provides good exposure and ease of closure. The stomach is pulled up into the operative field, the greater curvature stretched out at multiple points and clamps placed along the selected line of incision. The pouch is made from the corpus of the stomach so that true parietal cell juice is obtained. About 30% of the corpus volume is resected. The cannula is made of light-weight,biologically-inert material such as nylon or Delrin with dimensions and attachments after DeVito and Harkins [J. Appl. Physiol., 14, 138 (1959)]. Post operatively, dogs are medicated with antibiotics and an analgesic. They are allowed 2-3 months for recovery. Experiments are carried out in the following way: Dogs are fasted overnight (~18 hours) with water ad libitum prior to each experiment. The dogs are placed in a sling and a saphenous vein cannulated for drug administration. Histamine as the base (100 μg/kg/hr) and chlorpheniramine maleate (0.25 mg/kg/hr) are infused continuously (in a volume of 6 ml/hr) with a Harvard infusion pump.
Ninety minutes' infusion are allowed for the dogs to reach a steady state of acid output. At this time the drug or normal saline (control) is administered concomitantly with the secretagogue in a volume of 0.5 ml/kg over a 30 second period. When oral studies are to be carried out, the drug is administered via gastric gavage in a volume of 5 ml/kg. Infusion of the secretagogue is continued and 15 minute samples of the gastric juice are taken for 4.5 hours. Each sample is measured to the nearest 0.5 ml and titratable acidity is determined by titrating a 1 ml sample to pH 7.0 with 0.2 N NaOH, using an Autoburet and an electrometric pH meter (Radiometer).Titratable acid output is calculated in microequivalents by multiplying the volume in milliliters by the acid concentration in milliequivalents per liter.
Results are expressed as percent inhibition relative to control readings. Dose response curves are constructed and ED50 values are calculated by regression analyses. From 3 to 5 dogs are used at each dose level and a minimum of three dosage levels are utilized for determination of a dose response curve.

agranulocytosis = settings: in vivo; cited from earlier work
peptic ulcer disease = settings: clinical evaluation; cited from earlier work

## CNC(=S)NCCCCc1cnc[nH]1 [Burimamide]
H2-receptor; in animals and man
  inhibition of gastric secretion / clinical effectiveness: inhibits gastric secretion in animals and man
[1]
  oral absorption: oral absorption is poor

## CNC(=NC#N)NCCSCc1nc[nH]c1C [Cimetidine]
Gastric acid secretion [2]; Rattus norvegicus
  ED50: 3.8 µmol/kg
Gastric acid secretion [3]; Canis lupus familiaris, iv
  ED50: 2.18 µmol/kg
Gastric acid secretion [3]; Canis lupus familiaris, po
  ED50: ~3.3 µmol/kg
Gastric acid secretion [3]; oral
  ED50: 3.29 µmol/kg
H2-receptor
  potency / effectiveness as H2-antagonist versus other H2-antagonist: as effective an H2 -antagonist as metiamide
agranulocytosis
  toxicity (agranulocytosis): without producing agranulocytosis
Peptic ulcer disease
  therapeutic effect in treatment of peptic ulcer disease: effective therapeutic agent in the treatment of peptic ulcer disease

## Nc1c(NCCCOc2cccc(CN3CCCCC3)c2)c(=O)c1=O [Example 1, 1-Amino-2-[3-(3-piperidinomethylphenoxy)propylamino]cyclobutene-3,4-dione]
Gastric acid secretion [2]; Gastric Fistula Rat
  Potency Ratio (cimetidine = 1.0): 130
  ED50: 0.029 µmol/kg
Gastric acid secretion [3]; Canis lupus familiaris, oral, read-out: ED50
  ED50: 0.175 µmol/kg
Gastric acid secretion [3]; iv
  Potency Ratio (cimetidine = 1.0): 91
Gastric acid secretion [3]; oral
  Potency Ratio (cimetidine = 1.0): 19

## CN(C)Cc1ccc(CSCCNc2c(N)c(=O)c2=O)o1 [Example 2, 1-Amino-2-{2-[(5-dimethylaminomethyl-2-furyl)methylthio]ethylamino}cyclobutene-3,4-dione]
Gastric acid secretion [2]; Gastric Fistula Rat
  Potency Ratio (cimetidine = 1.0): ~ 2
  ED50: ~2 µmol/kg

## CNC(=S)NCCSCc1nc[nH]c1C [Metiamide]
H2-receptor
  potency / effectiveness as H2-antagonist versus other H2-antagonist: more potent than burimamide
H2-receptor; oral, man
  oral activity in man: orally active in man
agranulocytosis
  toxicity (agranulocytosis): toxicity (agranulocytosis)
